Structures are written as SMILES.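 Exposure lasted 48 hours, with cells grown in 96-well plates and compounds tested at five concentrations. Abbreviation: GI50, concentration required for 50% inhibition of growth.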 The source made the active and inactive calls. Cut-off read from the data, not from the text of the source: active = GI50 up to about 1.1 µM and inactive = higher.

Assay in all cases: NCI anticancer screen, dose series, 48 h
The subject of experiment [1] is RXF 631.
Experiment [2] concerns KM-20L2.
In experiment [3] the test system is M19-MEL.
Experiment [4] concerns HOP-18.
Experiment [5] has as its system DMS-114.
Experiment [6] has as its system LXFL 529.
The test system of experiment [7] is SNB-78.
In experiment [8] the test system is XF498.
Experiment [9] has as its system Hs-578T.

As to `COc1cc(/C=C2/C(=O)N(C(=O)OCc3ccccc3)C(Cc3cc(OC)c(OC)c(C)c3OC)C(=O)N2Cc2ccccc2)c(OC)c(C)c1OC` (stereo unspecified), the GI50 in [1] was > 100 µM (inactive); in [2], > 100 µM (inactive); in experiment [3], 69.7 µM (inactive); in [4] it was 95.3 µM (inactive); in experiment [5], 54.6 µM (inactive); in [6] it was 9.42 µM (inactive).
In the case of `CS/C(=N/C(=O)c1ccccc1)SCCS/C(=N\C(=O)c1ccccc1)SC`, the GI50 in experiment [1] was > 100 µM (inactive); in [2], > 100 µM (inactive); in experiment [3], > 100 µM (inactive); in [7] it was 66.8 µM (inactive); in experiment [5], 90.4 µM (inactive); in experiment [8], > 100 µM (inactive). In addition, the GI50 in [6] is > 100 µM (inactive).
For the molecule `C=CCNC(=O)ON1C(=O)CCC1=O`, the GI50 in [2], in experiment [3], in experiment [4], in experiment [7], in experiment [5] and in experiment [6] was > 100 µM (inactive) each time.
As for `COc1ccc(C(=O)O/N=C2/CCC/C2=C\c2ccccc2)cc1`, the GI50 in experiment [1] was > 100 µM (inactive); in experiment [2], > 100 µM (inactive); in [3], > 100 µM (inactive); in [4], > 100 µM (inactive); in experiment [7], > 68.5 µM (inactive); in experiment [5] it was > 100 µM (inactive). Further, the GI50 in experiment [8] and in [6] was > 100 µM (inactive) each time.
On to `CCOC(=O)/C(=C\c1ccc(O)c(OC)c1)C(=O)c1ccccc1`, for which the GI50 was > 41.7 µM (inactive) in experiment [2]; 20.8 µM (inactive) in experiment [3]; 38.9 µM (inactive) in [4]; 2.56 µM (inactive) in experiment [7]; 27.6 µM (inactive) in experiment [8]; 10.6 µM (inactive) in [6].
As for `O=C1c2ccccc2C2(O)c3cc4ccccc4cc3OC12O` (stereo unspecified), the GI50 in experiment [2] is > 100 µM (inactive); in [3], 47.2 µM (inactive); in [4], 69.7 µM (inactive); in experiment [7], 46.7 µM (inactive); in experiment [5] it was 25.1 µM (inactive); in experiment [6], 55.5 µM (inactive).
In the case of `CC(=O)NN1C(=O)C(Cc2ccccc2)c2ccccc21` (stereo unspecified), the GI50 in experiment [1], in experiment [2], in [3], in experiment [4], in experiment [7] and in [5] was > 100 µM (inactive) each time. Further, in experiment [8], the GI50 was > 100 µM (inactive).
Turning to `OCCCc1cnco1`, the GI50 in experiment [2], in [3], in experiment [4], in experiment [7], in [8] and in experiment [6] was > 100 µM (inactive) in each case.
As for `CC(C)c1cccc(C(C)C)c1N1C(=O)C(=O)C(c2nc3ccccc3o2)C(=O)C1=O`, the GI50 was > 100 µM (inactive) in experiment [1]; 79.1 µM (inactive) in [2]; 63.4 µM (inactive) in experiment [3]; > 100 µM (inactive) in experiment [7]; 24.5 µM (inactive) in experiment [5]; 38.5 µM (inactive) in [8]. Besides, the GI50 in [6] was 42.2 µM (inactive).
On to `COC1=CC(O)(CC(N)=O)c2ccccc2C1=O` (stereo unspecified), for which the GI50 in experiment [1], in experiment [2], in experiment [3], in experiment [4], in [7] and in [5] was > 100 µM (inactive) each time. The GI50 in experiment [8] and in [6] was > 100 µM (inactive) throughout.
Consider `N/C(=N\O)N/N=C\c1c2ccccc2c(Cl)c2ccccc12`, for which the GI50 is 2.02 µM (inactive) in [2]; 6.61 µM (inactive) in experiment [3]; 2.45 µM (inactive) in [4]; 12 µM (inactive) in experiment [7]; 3.19 µM (inactive) in experiment [5]; 16.8 µM (inactive) in [8].
For the molecule `COc1cc2c(cc1OC)C(C#N)(Cc1ccccc1)N(C(=O)c1ccccc1)C=C2` (stereo unspecified), the GI50 was 45.3 µM (inactive) in experiment [1]; 67.3 µM (inactive) in experiment [2]; 96.6 µM (inactive) in experiment [3]; > 100 µM (inactive) in experiment [4]; > 100 µM (inactive) in [7]; 17.6 µM (inactive) in [5]. Further, the results for the GI50 in [8] and in [6] were 8.15 µM (inactive) and 39.4 µM (inactive), respectively.
As for `CCSc1nc(-c2ccc(OC)cc2)c(C#N)c(=O)n1C1OCC(OC(C)=O)C(OC(C)=O)C1OC(C)=O` (stereo unspecified), the GI50 in [2] was > 100 µM (inactive); in [3], > 100 µM (inactive); in [4] it was 30 µM (inactive); in [7] it was > 100 µM (inactive); in experiment [5], 72.4 µM (inactive); in experiment [6], 44.6 µM (inactive).
In the case of `CCN(CC)C(=O)c1c(Cl)cc(N(CC)CC)oc1=O`, the GI50 in [2], in experiment [3], in experiment [4], in experiment [7], in experiment [5] and in experiment [8] was > 100 µM (inactive) in each case. Further, in experiment [6], the GI50 is > 100 µM (inactive).
In the case of `O=C1O/C(=C(/c2ccc(Cl)cc2)c2nc3ccccc3[nH]2)C(O)=C1c1ccc(Cl)cc1`, the GI50 was 0.891 µM (active) in experiment [1]; 2.38 µM (inactive) in experiment [2]; 2.09 µM (inactive) in experiment [4]; 4 µM (inactive) in experiment [7]; 1.24 µM (inactive) in [5]; 2.65 µM (inactive) in [6].
For the molecule `O=C(Cc1nc2ccccc2o1)C(=O)Nc1ccc(Cl)cc1Cl`, the GI50 in experiment [2], in [3], in [4], in experiment [7], in experiment [5] and in experiment [6] was > 100 µM (inactive) throughout.
For the molecule `CC(=O)OCC1OC(n2c(-c3ccc(N)cc3)cc(-c3ccco3)c(C#N)c2=O)C(OC(C)=O)C(OC(C)=O)C1OC(C)=O` (stereo unspecified), the GI50 in experiment [1] was 44.3 µM (inactive); in [2], > 50 µM (inactive); in experiment [3], 18.7 µM (inactive); in experiment [4], > 50 µM (inactive); in experiment [7], > 50 µM (inactive); in [5] it was 2.64 µM (inactive). Besides, the GI50 in experiment [6] was 11.1 µM (inactive).
For `O=C(c1ccccc1)[C@@H]1C[C@H](Sc2ccccc2)c2cc(Cl)ccc2N1`, the GI50 in experiment [1] is 28.1 µM (inactive); in experiment [2], 26.9 µM (inactive); in experiment [3], 30.1 µM (inactive); in experiment [4], > 100 µM (inactive); in experiment [7], 36.9 µM (inactive); in experiment [5], 21.1 µM (inactive). Besides, the GI50 in [8] is 18.9 µM (inactive); in experiment [6], 24 µM (inactive).
For the molecule `CCOC(=O)Nc1ccc(S(=O)(=O)I)cc1.CCOC(=O)Nc1ccc(S(=O)(=O)I)cc1.CNC(=O)N=O.NC(=O)OCCCl`, the GI50 in experiment [1], in experiment [2], in [7], in experiment [5], in experiment [8] and in [6] was > 100 µM (inactive) throughout.
In the case of `CN(C)c1ccc(N=O)c(O)c1.CN(C)c1ccc(N=O)c(O)c1.[SiH4]`, the GI50 in experiment [2] was 4.65 µM (inactive); in experiment [3], 5.56 µM (inactive); in experiment [4], 12.1 µM (inactive); in experiment [5], 3.72 µM (inactive); in [8], 9.4 µM (inactive); in [6] it was 5.64 µM (inactive).
For `Oc1ncc(N(CCCl)CCCl)c(O)n1` [URACIL MUSTARD], the GI50 was 91 µM (inactive) in experiment [9]; 69.5 µM (inactive) in experiment [2]; 63.2 µM (inactive) in [3]; 51.6 µM (inactive) in experiment [4]; 79.6 µM (inactive) in [7]; 14 µM (inactive) in experiment [5]. Besides, the results for the GI50 in [8] and in experiment [6] were 23 µM (inactive) and 71.4 µM (inactive), respectively.

The values are drawn from ChEMBL document CHEMBL1201862, “PubChem BioAssay data set” (2004).
